Test results taken from US8211929B2, “Pyrimidine derivatives as kinase modulators and method of use” (Exelixis, Inc., priority 2004, dated 2012).
Like-named read-outs stand apart in the source and are kept apart here.

Assays:
IGF 3P = target: T1, IGF 3P (Homo sapiens, UniProt P08069); assay: IGF1R kinase assay (LCCA), IGF 3P; type: biochemical
T1 construct: human IGF1R kinase domain residues M954-C1367; made in house; host or cells: baculovirus expression (insect cells)
In short: (§1)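 Read-out is percent ATP remaining, detected by luciferase-luciferin luminescence after a 2 h ambient reaction. Reaction contained 4 nM IGF1R kinase domain (residues M954-C1367, baculovirus-made), 3 μM ATP (near KM), 4 μM poly EY, pH 7.5 with Mg2+/Mn2+. Ten inhibitor concentrations; IC50 by Hill-type curve fit.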

[1] = target: T2, (Homo sapiens, UniProt P08069); assay: IGF1R kinase assay (LCCA), IGF 0P; type: biochemical
T2 construct: human IGF1R kinase domain residues M954-C1367; made in house; host or cells: baculovirus expression (insect cells)
T2 sequence (P08069 954-1367): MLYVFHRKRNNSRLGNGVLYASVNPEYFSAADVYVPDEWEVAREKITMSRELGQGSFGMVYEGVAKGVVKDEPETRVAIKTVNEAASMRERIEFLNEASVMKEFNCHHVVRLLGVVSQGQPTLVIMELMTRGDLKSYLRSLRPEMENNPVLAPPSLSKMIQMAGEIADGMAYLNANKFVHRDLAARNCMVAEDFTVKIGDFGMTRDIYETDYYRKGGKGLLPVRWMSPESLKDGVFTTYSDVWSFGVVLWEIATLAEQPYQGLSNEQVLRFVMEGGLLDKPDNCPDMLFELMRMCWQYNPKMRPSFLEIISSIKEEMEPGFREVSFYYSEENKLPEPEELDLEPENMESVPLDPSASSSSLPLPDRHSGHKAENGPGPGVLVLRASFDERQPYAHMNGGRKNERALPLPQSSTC
In short: as §1

T1 sequence (P08069 954-1367): as above

Row | SMILES | IC50 (IGF 3P; IGF1R kinase LCCA assay) [nM] | IC50 ([1]; IGF1R kinase LCCA assay) [nM] | IC50 (IGF 3P) [nM] | IC50 [1] [nM]
1 | Cc1cc(Nc2cc(C3CC3)n[nH]2)nc(Nc2ccc(C3CCN(C(=O)OC(C)(C)C)CC3)cc2)n1 [Example 566] | 500 to 5000 | 500 to 5000 | – | –
2 | Cc1cc(Nc2ccccc2)nc(Nc2ccc(N3CCOCC3)cc2)n1 [Example 567] | 500 to 5000 | 500 to 5000 | – | –
3 | Cc1cc(Nc2cc(C3CC3)n[nH]2)nc(Nc2ccc(CCNC(=O)OC(C)(C)C)cc2)n1 [Example 568] | 500 to 5000 | 500 to 5000 | – | –
4 | Cc1cc(Nc2cc(C3CC3)n[nH]2)nc(Nc2ccc(N3CCN(C)CC3)cc2)n1 [Example 569] | 500 to 5000 | 500 to 5000 | – | –
5 | Cc1cc(Nc2cc(C3CC3)n[nH]2)nc(NCc2nc(C(=O)NCCc3cccc(Cl)c3)cs2)n1 [Example 570] | 500 to 5000 | 500 to 5000 | – | –
6 | Cc1cc(Nc2cc(C3CC3)n[nH]2)nc(NCc2nc(C(=O)NCCc3ccccc3F)cs2)n1 [Example 571] | 500 to 5000 | 500 to 5000 | – | –
7 | Cc1cc(Nc2cc(C3CC3)[nH]n2)nc(NC(c2ccccc2)c2nc(-c3ccccc3)co2)n1 (centres unmarked) [Example 572] | 500 to 5000 | 500 to 5000 | – | –
8 | Cc1cc(Nc2cc(C3CC3)[nH]n2)nc(OCc2cc(-c3ccccc3)no2)n1 [Example 584, N-(5-cyclopropyl-1H-pyrazol-3-yl)-6-methyl-2-{[(3-phenylisoxazol-5-yl)methyl]oxy}pyrimidin-4-amine] | – | – | 500 to 5000 | 50 to 500
9 | CC(C)c1cc(CNc2nc(Nc3cc(C(C)C)[nH]n3)cc(OCCN3CCOCC3)n2)on1 [Example 587, N-{[3-(1-methylethyl)isoxazol-5-yl]methyl}-N^4-[5-(1-methylethyl)-1H-pyrazol-3-yl]-6-[(2-morpholin-4-ylethyl)oxy]pyrimidine-2,4-diamine] | – | – | < 50 | 500 to 5000
10 | CC(C)c1cc(Nc2cc(OCCN3CCOCC3)nc(NCc3cc(-c4ccccc4)no3)n2)n[nH]1 [Example 588, N^4-[5-(1-methylethyl)-1H-pyrazol-3-yl]-6-[(2-morpholin-4-ylethyl)oxy]-N^2-[(3-phenylisoxazol-5-yl)methyl]pyrimidine-2,4-diamine] | – | – | < 50 | 50 to 500
11 | CC(C)c1cc(Nc2cc(OCCN3CCCCC3)nc(NCc3cc(-c4ccccc4)no3)n2)[nH]n1 [Example 589, N^4-[3-(1-methylethyl)-1H-pyrazol-5-yl]-N^2-[(3-phenylisoxazol-5-yl)methyl]-6-[(2-piperidin-1-ylethyl)oxy]pyrimidine-2,4-diamine] | – | – | < 50 | 50 to 500
12 | CC(C)c1cc(Nc2cc(N3CCN[C@@H](C)C3)nc(NCc3cc(-c4ccccc4)no3)n2)n[nH]1 [Example 591, N^4-[5-(1-methylethyl)-1H-pyrazol-3-yl]-6-[(3S)-3-methylpiperazin-1-yl]-N^2-[(3-phenylisoxazol-5-yl)methyl]pyrimidine-2,4-diamine] | – | – | < 50 | 50 to 500
13 | CCN(CC)CCNc1cc(Nc2cc(C(C)C)[nH]n2)nc(NCc2cc(-c3ccccc3)no2)n1 [Example 592, N^4-[2-(diethylamino)ethyl]-N^6-[5-(1-methylethyl)-1H-pyrazol-3-yl]-N^2-[(3-phenylisoxazol-5-yl)methyl]pyrimidine-2,4,6-triamine] | – | – | < 50 | 50 to 500
14 | CC(C)c1cc(CNc2nc(Nc3cc(C4CC4)[nH]n3)cc(OCCN3CCOCC3)n2)on1 [Example 594, N^4-(5-cyclopropyl-1H-pyrazol-3-yl)-N^2-{[3-(1-methylethyl)isoxazol-5-yl]methyl}-6-[(2-morpholin-4-ylethyl)oxy]pyrimidine-2,4-diamine] | – | – | < 50 | 500 to 5000
15 | CC(C)c1cc(Nc2cc(OCCN3CCCCC3)nc(NCc3cc(C(C)C)no3)n2)[nH]n1 [Example 595, N^2-{[3-(1-methylethyl)isoxazol-5-yl]methyl}-N^4-[3-(1-methylethyl)-1H-pyrazol-5-yl]-6-[(2-piperidin-1-ylethyl)oxy]pyrimidine-2,4-diamine] | – | – | < 50 | 50 to 500
16 | CC(C)c1cc(CNc2nc(Nc3cc(C4CC4)n[nH]3)cc(OCCN3CCCCC3)n2)on1 [Example 597, N^4-(3-cyclopropyl-1H-pyrazol-5-yl)-N^2-{[3-(1-methylethyl)isoxazol-5-yl]methyl}-6-[(2-piperidin-1-ylethyl)oxy]pyrimidine-2,4-diamine] | – | – | < 50 | 50 to 500
17 | Cc1cc(CNc2nc(C)cc(Nc3cc(C4CC4)n[nH]3)n2)on1 [Example 600, N^4-(3-cyclopropyl-1H-pyrazol-5-yl)-6-methyl-N^2-[(3-methylisoxazol-5-yl)methyl]pyrimidine-2,4-diamine] | – | – | 50 to 500 | 50 to 500

Second part, the molecule after the results:

Row | IC50 (IGF 3P; IGF1R kinase LCCA assay) [nM] | IC50 ([1]; IGF1R kinase LCCA assay) [nM] | IC50 (IGF 3P) [nM] | IC50 [1] [nM] | SMILES
18 | – | – | < 50 | 50 to 500 | Cc1cc(CNc2nc(Nc3cc(C4CC4)n[nH]3)cc(N3CCOCC3)n2)on1 [Example 601, N^4-(3-cyclopropyl-1H-pyrazol-5-yl)-N^2-[(3-methylisoxazol-5-yl)methyl]-6-morpholin-4-ylpyrimidine-2,4-diamine]
19 | – | – | < 50 | 50 to 500 | Cc1cc(CNc2nc(Nc3cc(C4CC4)n[nH]3)cc(N3CCN(C)CC3)n2)on1 [Example 602, N^4-(3-cyclopropyl-1H-pyrazol-5-yl)-N^2-[(3-methylisoxazol-5-yl)methyl]-6-(4-methylpiperazin-1-yl)pyrimidine-2,4-diamine]
20 | – | – | < 50 | 50 to 500 | Fc1ccc(-c2cc(CNc3nc(Nc4cc(C5CC5)n[nH]4)cc(N4CCOCC4)n3)on2)cc1 [Example 604, N^4-(3-cyclopropyl-1H-pyrazol-5-yl)-N^2-{[3-(4-fluorophenyl)isoxazol-5-yl]methyl}-6-morpholin-4-ylpyrimidine-2,4-diamine]
21 | – | – | < 50 | 50 to 500 | CN1CCN(c2cc(Nc3cc(C4CC4)n[nH]3)nc(NCc3cc(-c4ccc(F)cc4)no3)n2)CC1 [Example 605, N^4-(3-cyclopropyl-1H-pyrazol-5-yl)-N^2-{[3-(4-fluorophenyl)isoxazol-5-yl]methyl}-6-(4-methylpiperazin-1-yl)pyrimidine-2,4-diamine]
22 | – | – | < 50 | 50 to 500 | Fc1ccc(-c2cc(CNc3nc(Nc4cc(C5CC5)n[nH]4)cc(OCCN4CCOCC4)n3)on2)cc1 [Example 606, N^4-(3-cyclopropyl-1H-pyrazol-5-yl)-N^2-{[3-(4-fluorophenyl)isoxazol-5-yl]methyl}-6-[(2-morpholin-4-ylethyl)oxy]pyrimidine-2,4-diamine]
23 | – | – | < 50 | 50 to 500 | CC(C)c1cc(Nc2cc(N3CCOCC3)nc(NCc3cc(-c4ccc(F)cc4)no3)n2)[nH]n1 [Example 607, N^2-{[3-(4-fluorophenyl)isoxazol-5-yl]methyl}-N^4-[3-(1-methylethyl)-1H-pyrazol-5-yl]-6-morpholin-4-ylpyrimidine-2,4-diamine]
24 | – | – | < 50 | 50 to 500 | CC(C)c1cc(Nc2cc(N3CCN(C)CC3)nc(NCc3cc(-c4ccc(F)cc4)no3)n2)[nH]n1 [Example 608, N^2-{[3-(4-fluorophenyl)isoxazol-5-yl]methyl}-N^4-[3-(1-methylethyl)-1H-pyrazol-5-yl]-6-(4-methylpiperazin-1-yl)pyrimidine-2,4-diamine]
25 | – | – | < 50 | 50 to 500 | CC(C)c1cc(Nc2cc(OCCN3CCOCC3)nc(NCc3cc(-c4ccc(F)cc4)no3)n2)[nH]n1 [Example 609]
